Reference: patent publication US8048458B2, “Saponin and preservative compositions for reduction of protozoa” (Sartec Corporation, priority 2006, dated 2011)

Test system: protozoa
Assay: In vitro treatment of washed rumen protozoa: cell count and Live/Dead stain, % killed
Assay type: cell-based, rumen protozoa from a Holstein-Friesian cow
Conditions: Yucca 1000 ppm where + Y, 2 hours, 39° C.; for % Viable: Live/Dead BacLight Stain; for % Killed by Treatment: standardized to blank
Method: Rumen contents were obtained from a rumen cannulated Holstein-Friesian cow 10 hours post-prandial. […] Sedimented protozoa were aspirated to fresh CBD and washed twice with warm CBD. Protozoa were resuspended in warm CBD.
Crude yucca was diluted in water to the desired concentration. […] Ethoxyquin was diluted in absolute ethanol to obtain concentrations which correspond to field concentrations of 0.5 g, 1.0 g and 1.5 g.
Experimental treatments were as follows:
Individual treatment tubes were flushed with carbon dioxide prior to sealing and placement at 39° C. for 2 hours with occasional mixing by tube inversion.
Total number of protozoa present in each treatment was determined on the formalin fixed preparation and on the corresponding sample the percentage of live protozoa as indicated by the Live/Dead® BacLight Stain was also determined.
[…] was determined by multiplying the percent of live protozoa by the total protozoa present in each treatment. […] The number of viable protozoa for each treatment was then subtracted from the number of viable protozoa present in the blank (control) treatment. The difference is the number killed by the corresponding treatment. The treatments were then standardized to the blank by calculating a percentage killed by treatment.

[1] = EQ 51.6 ug in vitro (0.5 g/head in vivo)
[2] = EQ 103 ug in vitro (1 g/head in vivo)
[3] = EQ 154 ug in vitro (1.5 g/head in vivo)

**Q.** For `CCOc1ccc2c(c1)C(C)=CC(C)(C)N2` [EQ, 1,2-dihydro-6-ethoxy-2,2,4-trimethylquinoline], which “# Live” value [1] is on record?
**A.** 7.13E+04

**Q.** What about the “% Killed by Treatment using Ethanol control as Baseline” value (“% Killed by Treatment … as Baseline” for short) [1] of the same compound?
**A.** 23%

**Q.** And the Cell count [1]?
**A.** 8.80E+04

**Q.** And the “% Viable” value [1]?
**A.** 81%

**Q.** And the “% Killed by Treatment” value [1]?
**A.** 18%

**Q.** What about the “# Live” value [2] of the same compound?
**A.** 7.35E+04

**Q.** And the “% Killed by Treatment … as Baseline” value [2]?
**A.** 20%

**Q.** And the Cell count [2]?
**A.** 9.30E+04

**Q.** And the “% Viable” value [2]?
**A.** 79%

**Q.** What about the “% Killed by Treatment” value [2] of the same compound?
**A.** 16%

**Q.** What about the “# Live” value [3] of the same compound?
**A.** 5.40E+04

**Q.** And the “% Killed by Treatment … as Baseline” value [3]?
**A.** 41%

**Q.** What about the Cell count [3] of the same compound?
**A.** 9.00E+04

**Q.** What about the “% Viable” value [3] of the same compound?
**A.** 60%

**Q.** And the “% Killed by Treatment” value [3]?
**A.** 38%
